The values that follow are results of earlier work, collected in patent publication EP4778540A1, “ANTIBODY-DRUG CONJUGATE CONTAINING HETEROCYCLIC COMPOUND HAVING ACTIVITY OF INDUCING DECOMPOSITION OF G12D MUTANT KRAS PROTEIN” (Astellas Pharma Inc., priority 2023, dated 2025).

For the data set, the target named is T1, mutant RAS G12D protein (Homo sapiens, UniProt P01116, G12D).
T1 construct: endogenous in cells; host or cells: AsPC-1 (human pancreatic cancer line)
To be noted: human G12D mutant KRAS-positive pancreatic cancer line AsPC-1, cited from earlier work; for DC50: DC50 of D10 calculated from a molecular weight in terms of 4 hydrochloride.

Where a name gives a salt, the structure may show the parent alone.

T1 sequence (P01116 1-188 isoform P01116-2 G12D): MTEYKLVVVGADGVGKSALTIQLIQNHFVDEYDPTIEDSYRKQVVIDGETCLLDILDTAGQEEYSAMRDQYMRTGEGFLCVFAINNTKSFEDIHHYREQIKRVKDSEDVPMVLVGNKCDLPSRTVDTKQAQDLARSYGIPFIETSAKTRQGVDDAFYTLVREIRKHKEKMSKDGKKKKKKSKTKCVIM

Take `COC(C)COc1nc(N(C)C2CCNC2)c2cc(C3CC3)c(-c3c(C)c(F)cc4[nH]ncc34)c(OCc3ccc(-c4cn(C(C(=O)N5CC(O)CC5C(=O)NC(CO)c5ccc(-c6scnc6C)cc5)C(C)C)nn4)cc3)c2n1` [D7, (4R)-1-[(2S)-2-{4-[4-({[(7M)-6-cyclopropyl-7-(6-fluoro-5-methyl-1H-indazol-4-yl)-2-[(2S)-2-methoxypropoxy]-4-{methyl[(3S)-pyrrolidin-3-yl]amino}quinazolin-8-yl]oxy}methyl)phenyl]-1H-1,2,3-triazol-1-yl}-3-methylbutanoyl]-4-hydroxy-N-{(1R)-2-hydroxy-1-[4-(4-methyl-1,3-thiazol-5-yl)phenyl]ethyl}-L-prolinamide]: the DC50 is 10 nM.
Consider `Cc1c(F)cc2[nH]ncc2c1-c1c(C2CC2)cc2c(N3CC4CC3CN4)nc(OC3CCOCC3)nc2c1OCc1ccc(C(=O)N2CCN(Cc3ccc4c(c3)n(C)c(=O)n4C3CCC(=O)NC3=O)CC2C)cc1` [D9, 3-(5-{[(3S)-4-{4-[({(7M)-6-cyclopropyl-4-[(1S,4S)-2,5-diazabicyclo[2.2.1]heptan-2-yl]-7-(6-fluoro-5-methyl-1H-indazol-4-yl)-2-[(oxan-4-yl)oxy]quinazolin-8-yl}oxy)methyl]benzoyl} -3-methylpiperazin-1-yl]methyl}-3-methyl-2-oxo-2,3-dihydro-1H-benzimidazol-1-yl)piperidine-2,6-dione], for which the DC50 is 13 nM and the Dmax was 86%.
For the compound `Cc1c(F)cc2[nH]ncc2c1-c1c(C2CC2)cc2c(N3C[C@@H]4C[C@H]3CN4)nc(OC3CCOCC3)nc2c1OCc1ccc(C(=O)N2CCN(Cc3ccc4c(N5CCC(=O)NC5=O)nn(C)c4c3)C[C@@H]2C)cc1` [D10, 1-(6-{[(3S)-4-{4-[({(7M)-6-cyclopropyl-4-[(1S,4S)-2,5-diazabicyclo[2.2.1]heptan-2-yl]-7-(6-fluoro-5-methyl-1H-indazol-4-yl)-2-[(oxan-4-yl)oxy]quinazolin-8-yl}oxy)methyl]benzoyl}-3-methylpiperazin-1-yl]methyl}-1-methyl-1H-indazol-3-yl)-1,3-diazinane-2,4-dione n-hydrochloride], the DC50 is 71 nM and the Dmax was 86%.
As for `CO[C@@H](C)COc1nc(N2C[C@@H]3C[C@H]2CN3)c2cc(C3CC3)c(-c3c(C)c(F)cc4[nH]ncc34)c(OCc3ccc(C(=O)N4CCN(Cc5ccc6c(c5)n(C)c(=O)n6C5CCC(=O)NC5=O)C[C@@H]4C)cc3)c2n1` (stereo partly drawn) [D11, 3-(5-{[(3S)-4-{4-[({(7M)-6-cyclopropyl-4-[(1S,4S)-2,5-diazabicyclo[2.2.1]heptan-2-yl]-7-(6-fluoro-5-methyl-1H-indazol-4-yl)-2-[(2S)-2-methoxypropoxy]quinazolin-8-yl}oxy)methyl]benzoyl}-3-methylpiperazin-1-yl]methyl}-3-methyl-2-oxo-2,3-dihydro-1H-benzimidazol-1-yl)piperidine-2,6-dione], the DC50 is 8 nM and the Dmax is listed as 86%.
